Source: PubChem BioAssay AID489041 (Sanford-Burnham Center for Chemical Genomics, 2010)
Activity calls are given as the source filed them. No rule for the calls is given here.

The molecules below were run on HEK-293T NF-kB luciferase reporter counterscreen, luminescence (assay: inhibitors of HEK-293T NF-kB luciferase – HEK-293T cells, luminescence, counter-screen for T-cell antigen receptor NF-kB inhibitors, dose response (AID 489041)).

| Compound | IC50 |
| --- | --- |
| Cn1c2c(c(=O)n(C)c1=O)C(C(F)(F)F)(C(F)(F)F)N=C(c1ccc(Cl)cc1)N2 | 1.62 µM |
| CCOc1ccccc1C1CC(=O)Nc2cc(C)c(C)cc21 (stereo not drawn) | 7.75 µM |
| O=C(N=Nc1c(O)[nH]c2ccc(Br)cc12)c1ccccc1-n1cccc1 | 7.76 µM |
| COc1ccc2c(C)nc(Nc3nc(-c4ccccc4)cc(=O)[nH]3)nc2c1 | 1.54 µM |
| COc1cccc(-c2cc(=O)c3cc(NC(=O)c4ccc(N(C)C)cc4)ccc3[nH]2)c1 | > 80 µM (inactive) |
| CCOC(=O)C(C)Oc1cccc2c(=O)n(CC(=O)NCc3ccc(F)cc3)ccc12 (stereo not drawn) | 9.67 µM |
| Nc1nc(-c2ccccc2)cc(N2CCCCC2)n1 | 2.23 µM |
| COc1ccc(OCC(=O)Nc2ccccc2N2CCCCC2)cc1 | 12 µM |
| COc1ccccc1C(=O)Nc1nc2ccccc2s1 | 0.8 µM |
| C/C=C(\C)C(=O)N[C@@H](c1ccccc1)[C@@H](O)C(=O)O[C@H]1C[C@@]2(O)[C@@H](OC(=O)c3ccccc3)C3[C@](C)(C(=O)[C@H](O)C(=C1C)C2(C)C)[C@@H](O)C[C@H]1OC[C@@]31OC(C)=O (stereo partly drawn) | > 80 µM (inactive) |
| CSc1nccc(-c2nn(-c3ccc(C)cc3)ccc2=O)n1 | 6.22 µM |
| CCOC(=O)c1[nH]c(C)c(C(=O)Nc2cc(OC)ccc2OC)c1C | > 80 µM (inactive) |
| COc1ccc(C2=Nn3c(nnc3-c3ccccc3OC)SC2)cc1OC1CCCC1 | 3.68 µM |
| COc1ccccc1N1CCN(C(=O)c2ccc(-c3ccc(Cl)cc3)o2)CC1 | 10.1 µM |
| COc1ccc(OC)c2c1C(=O)C(Cl)=C(Cl)C2=O | 3.96 µM |
| CCN(CC)c1ccc(/C=N/NC(=O)c2nnn(-c3nonc3N)c2C(C)C)c(O)c1 | 0.22 µM |
| C[C@@H]1O[C@@H](O[C@H]2C[C@@H](O)[C@]3(CO)[C@@H]4C(CC[C@]3(O)C2)[C@@]2(O)CC[C@H](C3COC(=O)C3)[C@@]2(C)C[C@H]4O)[C@H](O)[C@H](O)[C@H]1O (stereo partly drawn) | 0.69 µM |
| Cc1cc(NC(=O)COC(=O)c2ccc(S(=O)(=O)N3CCCc4ccccc43)cc2)no1 | 28.3 µM (inactive) |
| CCCCCOC(=O)c1[nH]c2c(c1C)C(=O)CC(c1ccco1)C2 (stereo not drawn) | 0.41 µM |
| CCC(C)(C)c1ccc(OCCCC[n+]2cccc(C)c2C)c(C(C)(C)CC)c1 | 4.01 µM |
| Cc1ccc(C(=O)c2cc([N+](=O)[O-])ccc2N2CCOCC2)cc1C | 10.3 µM |
| Cc1c(C(=O)N/N=C/c2c(O)ccc3ccccc23)nnn1-c1nonc1N | > 80 µM (inactive) |
| COc1cc(-c2noc(C)c2/C=C/c2ccc(OC(C)=O)cc2)cc(OC)c1OC | 2.78 µM |
| CC(=O)Nc1ccc(S(=O)(=O)N2CCCc3ccccc32)cc1 | 26.6 µM (inactive) |

| Compound | IC50 |
| --- | --- |
| CCOc1ccc(S(=O)(=O)NCc2ccccn2)cc1NC(=O)c1ccccc1F | > 80 µM (inactive) |
| COC(=O)c1ccc(C)c(NS(=O)(=O)c2ccc3c(c2)OCCO3)c1 | 20.1 µM (inactive) |
| CCn1cc(C(=O)NC2CCCc3c2cnn3-c2cccc(C)c2C)cn1 (stereo not drawn) | 14.7 µM |
| O=C(COc1ccc2c(-c3ccccc3)cc(=O)oc2c1)Nc1cccnc1 | 0.26 µM |
| COC(=O)c1[nH]c2ccc(F)cc2c1NS(=O)(=O)c1ccc(OC)cc1 | 11.8 µM |
| COc1cc2nc(NC(=O)c3ccco3)sc(=O)c2cc1OC | 66.7 µM (inactive) |
| O=C(N/N=C(\c1ccccc1)c1cccnc1)c1cccc(F)c1 | > 80 µM (inactive) |
| CCn1ncc(C2=NOC(C(=O)NCc3ccccc3)C2)c1C (stereo not drawn) | 2.39 µM |
| C[C@]12CCC3C(CCC4=CC(O)CC[C@@]43/C=N/O)C1(O)CCC2C1=CC(=O)OC1 (stereo partly drawn) | 0.33 µM |
| CC#CC(=O)N1CCC(n2nccc2NC(=O)c2ccc3c(c2)OCO3)CC1 | > 80 µM (inactive) |
| CC1=NNC(=O)/C1=C\c1cn(-c2ccccc2)nc1-c1ccc(Cl)cc1 | 7.76 µM |
| Cc1cccc(NS(=O)(=O)c2ccc(-c3cnc(C4CC4)o3)cc2)c1 | 3.27 µM |
| COc1ccc(/C=N/NC(=O)COc2ccccc2-c2ccccc2)cc1 | 4.75 µM |
| CC[n+]1cc(C)ccc1/C=C/c1ccc(N(C)C)cc1 | 3.97 µM |
| Cc1ccc(N2C(=O)c3cccc4c(N)ccc(c34)C2=O)c2cccnc12 | < 0.16 µM |
| O=C1CC(c2cc(Br)ccc2F)c2cc3c(cc2N1)CCC3 (stereo not drawn) | > 80 µM (inactive) |
| CCCCn1c2c(c(=N)c3c1CCC3)CCC2 | 8.5 µM |
| COc1ccc(/C=N/NC(=O)c2[nH]c3ccc(Br)cc3c2-c2ccccc2)cc1 | 21.1 µM (inactive) |
| O=C1C=CC(O)(c2cc(=O)c3c(O)cc(O)cc3o2)C=C1 | 20.5 µM (inactive) |
| Cc1ccc(C[n+]2c(-c3ccc(C)cc3)cc(-c3ccc(C)cc3)cc2-c2ccc(C)cc2)cc1 | 1.19 µM |
| COc1cccc(OC)c1C1=NCC(=O)Nc2c1oc1ccc(Br)cc21 | 3.28 µM |
| COc1cc(Cn2c(-c3nonc3N)nc3ccccc32)ccc1C | 1.08 µM |
| CCCCCCCOc1ccc(OC(=O)c2ccncc2)cc1 | > 80 µM (inactive) |
| O=S(=O)(c1ccc2c(c1)OCCO2)N1CCN(c2ncnc3sccc23)CC1 | 2.44 µM |
